Assay results reported in paper PMC8851638 (ACS Omega, 2022).
Values after ≈ are worked out from the molar mass of the structure shown. Values joined by “and” are separate entries in the source; they are usually repeats but may differ in a detail not shown here. Equal values may be shown once.

Legend:
[1] = system: S. epidermidis (MDR00223); assay: Agar well-diffusion antimicrobial sensitivity assay; assay type: cell-based, Staphylococcus epidermidis; settings: Staphylococcus epidermidis, read-out: Inhibition Zone (IZ)
[2] = system: E. coli (MDR00501); assay: as above; assay type: cell-based; settings: Escherichia coli, read-out: Inhibition Zone (IZ)
[3] = system: C. albicans200 (MDR00200); assay: as above; assay type: cell-based, Candida albicans; settings: Candida albicans, read-out: Inhibition Zone (IZ)
[4] = system: S. aureus (MDR00231); assay: as above; assay type: cell-based, Staphylococcus aureus; settings: Staphylococcus aureus, read-out: Inhibition Zone (IZ)
[5] = system: C. albicans100 (MDR00100); assay: as above; assay type: cell-based, Candida albicans; settings: Candida albicans, read-out: Inhibition Zone (IZ)
[6] = system: RBCs; assay: Hemolytic assay; assay type: cell-based; settings: human RBCs; compounds 1.0 mg/mL; Triton X-100 0.1% v/v; 37 °C, 35 min
[7] = system: S. epidermidis (MDR00223); assay: MIC and MBC by broth microdilution; assay type: cell-based, Staphylococcus epidermidis; settings: Staphylococcus epidermidis, read-out: MIC (mean ± SEM), S. epidermidis; broth microdilution
[8] = system: S. aureus (MDR00231); assay: MIC and MBC by broth microdilution; assay type: cell-based, Staphylococcus aureus; settings: Staphylococcus aureus, read-out: MIC (mean ± SEM), S. aureus; broth microdilution
[9] = system: S. epidermidis biofilm; assay: Staphylococcus biofilm mass reduction; assay type: cell-based; settings: at their MIC
[10] = system: E. coli (MDR00501); assay: MIC and MBC by broth microdilution; assay type: cell-based; settings: Escherichia coli, read-out: MIC (mean ± SEM), E. coli; broth microdilution
[11] = system: S. aureus biofilm; assay: Staphylococcus biofilm mass reduction; assay type: cell-based; settings: at their MIC
[12] = system: B. subtilis (MDR00423); assay: MIC and MBC by broth microdilution; assay type: cell-based; settings: Bacillus subtilis, read-out: MIC (mean ± SEM), B. subtilis; broth microdilution

Compound	zone of inhibition at 100000 µg/mL [1] [mm]	zone of inhibition at 100000 µg/mL [2] [mm]	zone of inhibition at 100000 µg/mL [3] [mm]	zone of inhibition at 100000 µg/mL [4] [mm]	zone of inhibition at 100000 µg/mL [5] [mm]	%lysis of RBCs [6]	MIC [7] [µg/mL]	MIC [8] [µg/mL]	reduction of biofilm formation [9] [%]	MIC [10] [µg/mL]	reduction of biofilm formation [11] [%]	MIC [12] [µg/mL]
Cc1c(NN=C2SC(C(C#N)=Cc3ccc(Cl)cc3)=NC2=O)c(=O)n(-c2ccccc2)n1C [Compound 15b, 3-(4-Chlorophenyl)-2-(5-(2-(1,5-dimethyl-3-oxo-2-phenyl-2,3-dihydro-1H-pyrazol-4-yl)hydrazono)-4-oxo-4,5-dihydrothiazol-2-yl)acrylonitrile]	16 ± 0.25	16 ± 0.85	18 ± 0.76	18 ± 0.44	16 ± 0.34							
N#CC(=Cc1ccc(Cl)cc1)C1=NC(=O)C(=Cc2cn(-c3ccccc3)nc2-c2ccccc2)S1 [Compound 5b, 3-(4-Chlorophenyl)-2-(5-((1,3-diphenyl-1H-pyrazol-4-yl)methylene)-4-oxo-4,5-dihydrothiazol-2-yl)acrylonitrile]	21 ± 0.1	22 ± 0.56	25 ± 0.77	24 ± 0.2	23 ± 0.26							
Cc1ccc(-c2nn(-c3ccccc3)cc2C=C(C#N)C2=NC(=O)CS2)cc1 [Compound 4b, 2-(4-Oxo-4,5-dihydrothiazol-2-yl)-3-(1-phenyl-3-(p-tolyl)-1H-pyrazol-4-yl)acrylonitrile]	19 ± 0.31	22 ± 0.6	23 ± 0.22	20 ± 0.2	22 ± 0.1							
Cc1ccc(-c2nn(-c3ccccc3)cc2C=c2sc(=CC#N)[nH]c2=O)cc1 [Compound 3b, 2-(4-Oxo-5-((1-phenyl-3-(p-tolyl)-1H-pyrazol-4-yl)methylene)thiazolidin-2-ylidene)acetonitrile]	17 ± 0.21	16 ± 0.34	15 ± 0.8	15 ± 0.63	13 ± 0.22							
CCOC(=O)C=c1[nH]c(=O)c(=Cc2cn(-c3ccccc3)nc2-c2ccc(C)cc2)s1 [Compound 3d, Ethyl-2-(4-oxo-5-((1-phenyl-3-(p-tolyl)-1H-pyrazol-4-yl)methylene)thiazolidin-2-ylidene)-acetate]	16 ± 0.1	15 ± 0.67	16 ± 0.22	15 ± 0.78	13 ± 0.6							
Cc1c(NN=C2SC(CC#N)=NC2=O)c(=O)n(-c2ccccc2)n1C [Compound 14, 2-(5-(2-(1,5-Dimethyl-3-oxo-2-phenyl-2,3-dihydro-1H-pyrazol-4-yl)hydrazono)-4-oxo-4,5-dihydrothiazol-2-yl)acetonitrile]	19 ± 0.23	17 ± 0.35	20 ± 0.88	16 ± 0.21	18 ± 0.66							
CCOC(=O)C=c1[nH]c(=O)c(=Cc2cn(-c3ccccc3)nc2-c2ccccc2)s1 [Compound 3c, Ethyl 2-(5-((1,3-Diphenyl-1H-pyrazol-4-yl)methylene)-4-oxothiazolidin-2-ylidene)acetate]	15 ± 0.7	18 ± 0.33	14 ± 0.3	13 ± 0.46	15 ± 0.45							
CCOC(=O)c1c(N)csc1-c1cn(-c2ccccc2)nc1-c1ccccc1 [Compound 7a, Ethyl 4-Amino-2-(1,3-diphenyl-1H-pyrazol-4-yl)thiophene-3-carboxylate]	21 ± 0.12	22 ± 0.41	25 ± 0.33	24 ± 0.4	21 ± 0.32							
Triton X-100 [reference compound]						95.12% and 95.12 ± 0.721%						
O=C(O)c1cn(C2CC2)c2cc(N3CCNCC3)c(F)cc2c1=O [CIP, Ciprofloxacin, reference compound]						16.2% and 16.2 ± 0.5%	0.47 ± 0.2 (≈ 1.42 µM)	0.48 ± 0.1 (≈ 1.45 µM)	38	0.46 ± 0.4 (≈ 1.39 µM)	43.2	0.48 ± 0.3 (≈ 1.45 µM)
Cc1c(NN=C2SC(C(C#N)=Cc3ccccc3)=NC2=O)c(=O)n(-c2ccccc2)n1C [Compound 15a, 2-(5-(2-(1,5-Dimethyl-3-oxo-2-phenyl-2,3-dihydro-1H-pyrazol-4-yl)hydrazono)-4-oxo-4,5-dihydrothiazol-2-yl)-3-phenylacrylonitrile]	18 ± 0.56	15 ± 0.77	20 ± 0.58	16 ± 0.59	16 ± 0.44							
N#CC(=Cc1ccc([N+](=O)[O-])cc1)C1=NC(=O)C(=Cc2cn(-c3ccccc3)nc2-c2ccccc2)S1 [Compound 5c, 2-(5-((1,3-Diphenyl-1H-pyrazol-4-yl)methylene)-4-oxo-4,5-dihydrothiazol-2-yl)-3-(4-nitrophenyl)acrylonitrile]	24 ± 0.28	21 ± 0.45	24 ± 0.13	22 ± 0.66	21 ± 0.52							
